Assays:
[1] = Viscosity of the synthesized amphipathic compound; format: physicochemical; conditions: at shear velocity of 92 l/s
Description: Specifically, the amphipathic compound represented by the general formula (I) has a viscosity of preferably 15.0 Pa-s or less, more preferably 11.0 Pa-s or less, further preferably 6.0 Pa-s or less, by itself, as measured at 25° C. This viscosity can be measured using, for example, a viscosity and viscoelasticity measuring apparatus (Gemini II, Malvern Instruments Ltd.) at a temperature of 25° C.
^1H-NMR and viscosity of the obtained compound were measured.

[2] = cited from earlier work

Row | Viscosity [1] [Pa·s] | Structure (SMILES) | pKa [2]
1 | 0.26 | CC(C)=CCC/C(C)=C/CCC(C)=CCCC(=O)OCC(O)CO (racemic) [Example 3, Mono-O-(5,9,13-trimethyltetradeca-4,8,12-trienoyl)glycerol] | –
2 | 0.37 | CC(C)=CCC/C(C)=C/CC/C(C)=C/CCC(C)=CCCC(=O)OCC(O)CO (racemic) [Example 6, Mono-O-(5,9,13,17-tetramethyloctadeca-4,8,12,16-tetraenoyl)glycerol] | –
3 | 0.48 | CC(=CCCC(=O)OCC(O)CO)CCCC(C)CCCC(C)C (stereo not shown) [Example 1, Mono-O-(5,9,13-trimethyltetradec-4-enoyl)glycerol] | –
4 | – | CC1(C)O[C@@H]2C[C@H]3[C@@H]4CCC5=CC(=O)C=C[C@]5(C)[C@@]4(F)[C@@H](O)C[C@]3(C)[C@]2(C(=O)CO)O1 [triamcinolone acetonide] | 13.37

From US12296014B2, “External preparation comprising non-lamellar liquid crystal-forming lipid” (FARNEX INCORPORATED, priority 2018, dated 2025)
